Results from ChEMBL document CHEMBL1201862, “PubChem BioAssay data set” (2004).
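Five concentrations, 48 hours, 96-well plates. Abbreviation: GI50, concentration required for 50% inhibition of growth.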 Activity calls are given as the source filed them. Rule as the data show it: active = GI50 up to about 1.1 µM and inactive = higher.

Assays:
Assay in all cases: NCI tumour cell line growth inhibition, 48 h
OVCAR-5 = test system: OVCAR-5
SK-OV-3 = test system: SK-OV-3
Hs-578T = test system: Hs-578T
K562 = test system: K562
A549 = test system: A549
MDA-MB-435 = test system: MDA-MB-435
HT-29 = test system: HT-29
HL-60 = test system: HL-60
SW-620 = test system: SW-620
SK-MEL-2 = test system: SK-MEL-2
NCI/ADR-RES = test system: NCI/ADR-RES
CCRF-CEM = test system: CCRF-CEM
M14 = test system: M14
ACHN = test system: ACHN
LOX IMVI = test system: LOX IMVI
UACC-62 = test system: UACC-62
DU-145 = test system: DU-145
NCI-H226 = test system: NCI-H226
HOP-62 = test system: HOP-62

Measured: GI50

O=C(O)c1ccc(NC(NC(=O)C(C(F)(F)F)C(F)(F)F)(C(F)(F)F)C(F)(F)F)cc1
inactive: OVCAR-5 > 100 µM | SK-OV-3 > 100 µM | Hs-578T > 100 µM | K562 > 100 µM | A549 > 100 µM | MDA-MB-435 > 100 µM | HT-29 > 100 µM | HL-60 > 100 µM | SW-620 > 100 µM | SK-MEL-2 > 100 µM | NCI/ADR-RES > 100 µM | CCRF-CEM > 100 µM | M14 > 100 µM | ACHN > 100 µM | LOX IMVI > 100 µM

NCCNCCNc1ccc(NCCNCCN)c2c1C(=O)c1c(O)ccc(O)c1C2=O
inactive: OVCAR-5 > 100 µM | UACC-62 > 100 µM | SK-OV-3 > 100 µM | Hs-578T 68.7 µM | K562 > 100 µM | A549 > 100 µM | DU-145 > 100 µM | MDA-MB-435 > 100 µM | HT-29 > 100 µM | SW-620 > 100 µM | NCI/ADR-RES > 100 µM | CCRF-CEM 38.9 µM | NCI-H226 > 100 µM | HOP-62 > 100 µM | M14 > 100 µM | ACHN > 100 µM | LOX IMVI > 100 µM

CNC(=O)CN1CC(=O)N(C)C(=O)C1
inactive: OVCAR-5 > 100 µM | UACC-62 > 100 µM | SK-OV-3 > 100 µM | K562 > 100 µM | HL-60 > 100 µM | SW-620 > 100 µM | SK-MEL-2 > 100 µM | CCRF-CEM > 100 µM | NCI-H226 > 100 µM | HOP-62 > 100 µM | M14 > 100 µM | LOX IMVI > 100 µM

CCOC(=O)c1sc2nc(SC)nc(Nc3ccc4c(c3)OCCO4)c2c1N
inactive: OVCAR-5 17.1 µM | UACC-62 11.4 µM | K562 20.6 µM | A549 10 µM | DU-145 14.1 µM | MDA-MB-435 18 µM | HT-29 21 µM | HL-60 > 100 µM | SW-620 19.5 µM | SK-MEL-2 15 µM | NCI/ADR-RES 21.6 µM | CCRF-CEM 16.9 µM | NCI-H226 3.33 µM | HOP-62 11.8 µM | M14 11 µM | ACHN 7.28 µM | LOX IMVI 30.6 µM

Fc1ccc(-c2sc(-c3ccsc3)cc2Cc2ccsc2)cc1
inactive: UACC-62 > 10 µM | SK-OV-3 > 10 µM | K562 > 10 µM | A549 > 10 µM | DU-145 > 10 µM | MDA-MB-435 > 10 µM | HT-29 > 10 µM | HL-60 > 10 µM | SW-620 > 10 µM | CCRF-CEM > 10 µM | HOP-62 > 10 µM | M14 > 10 µM | LOX IMVI > 10 µM

CC(=O)n1nc(-c2ccccc2)n(/N=C/c2ccc([N+](=O)[O-])cc2)c1=O
inactive: OVCAR-5 > 100 µM | UACC-62 > 100 µM | SK-OV-3 52.8 µM | K562 > 100 µM | A549 > 100 µM | DU-145 > 100 µM | MDA-MB-435 > 100 µM | HT-29 > 100 µM | HL-60 > 100 µM | SW-620 > 100 µM | SK-MEL-2 > 100 µM | NCI/ADR-RES > 100 µM | CCRF-CEM > 100 µM | NCI-H226 > 100 µM | M14 > 100 µM | ACHN > 100 µM | LOX IMVI > 100 µM

CSC(SC)=C(C(=O)O)P(=O)(O)O
inactive: OVCAR-5 > 100 µM | UACC-62 > 100 µM | SK-OV-3 > 100 µM | Hs-578T > 100 µM | A549 > 100 µM | DU-145 > 100 µM | HT-29 > 100 µM | HL-60 > 100 µM | SW-620 > 100 µM | SK-MEL-2 > 100 µM | NCI/ADR-RES > 100 µM | CCRF-CEM > 100 µM | NCI-H226 > 100 µM | HOP-62 > 100 µM | M14 > 100 µM | ACHN > 100 µM | LOX IMVI > 100 µM

CCCCCCCCCCCCCCCCOCC(Cl)COP(=O)(O)OP(=O)(O)OCC1OC(n2cc(C)c(=O)[nH]c2=O)CC1O (centres undefined)
inactive: OVCAR-5 95.1 µM | SK-OV-3 > 100 µM | Hs-578T 31.4 µM | K562 > 100 µM | A549 > 100 µM | MDA-MB-435 57.1 µM | HT-29 > 100 µM | HL-60 > 100 µM | SW-620 > 100 µM | SK-MEL-2 > 100 µM | NCI/ADR-RES 71.3 µM | CCRF-CEM > 100 µM | NCI-H226 28.8 µM | HOP-62 > 100 µM | M14 > 100 µM | ACHN > 100 µM | LOX IMVI > 100 µM

Cc1cc(-c2cccc3ccccc23)c(C#N)c(=S)n1C1OC(CO)C(O)C(O)C1O (centres undefined)
inactive: OVCAR-5 > 100 µM | UACC-62 > 100 µM | SK-OV-3 > 100 µM | Hs-578T 86.5 µM | A549 > 100 µM | MDA-MB-435 > 100 µM | HT-29 > 100 µM | HL-60 > 100 µM | SW-620 > 100 µM | SK-MEL-2 > 100 µM | NCI/ADR-RES > 100 µM | CCRF-CEM 71.1 µM | NCI-H226 50 µM | HOP-62 > 100 µM | M14 > 100 µM | ACHN > 100 µM | LOX IMVI > 100 µM

Cc1ccc2c(c1C)CC1(Cc3c(C)ccc(C)c3C1=O)C2=O (centres undefined)
inactive: OVCAR-5 > 100 µM | UACC-62 > 100 µM | SK-OV-3 > 100 µM | Hs-578T > 100 µM | K562 > 100 µM | A549 > 100 µM | DU-145 > 100 µM | MDA-MB-435 > 100 µM | HT-29 > 100 µM | HL-60 > 100 µM | SW-620 > 100 µM | NCI/ADR-RES > 100 µM | CCRF-CEM > 100 µM | NCI-H226 > 100 µM | M14 > 100 µM | ACHN > 100 µM

CCCCc1ccc(-n2sc3ncc(-c4ccccc4)cc3c2=O)cc1
inactive: OVCAR-5 > 100 µM | UACC-62 > 100 µM | SK-OV-3 > 100 µM | K562 > 100 µM | A549 > 100 µM | DU-145 > 100 µM | MDA-MB-435 > 100 µM | HL-60 > 100 µM | SW-620 > 100 µM | SK-MEL-2 > 100 µM | NCI/ADR-RES > 100 µM | CCRF-CEM > 100 µM | NCI-H226 > 100 µM | HOP-62 > 100 µM | M14 > 100 µM | ACHN > 100 µM | LOX IMVI > 100 µM

CC1CN=C(Nc2ccc(F)cc2F)S1 (centres undefined)
inactive: OVCAR-5 > 100 µM | SK-OV-3 > 100 µM | Hs-578T > 100 µM | K562 > 100 µM | A549 > 100 µM | DU-145 > 100 µM | HL-60 > 100 µM | SW-620 > 100 µM | SK-MEL-2 > 100 µM | NCI/ADR-RES > 100 µM | CCRF-CEM > 100 µM | HOP-62 > 100 µM | ACHN > 100 µM | LOX IMVI > 100 µM
